The target in assay [1] is T1, M3 muscarinic acetylcholine receptor (mAChR) (Homo sapiens, UniProt P20309).
T1 construct: expressed in transfected cells; host or cells: CHO-K1
Kind of assay: FLIPR calcium assay (Fluo 8), M3-overexpressing CHO-K1 cells. Type of assay: cell-based. In short, it runs like this:
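CHO-K1 cells overexpressing each human receptor seeded at 15,000 per well, grown overnight at 37° C., 5% CO2, then loaded with Fluo-8 for 30 min. Compounds in HBSS added and calcium response read on FLIPR; EC50 and Emax calculated per subtype.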

A further assay deals with T2, M4 mAChR (Homo sapiens, UniProt P08173).
T2 construct: expressed in transfected cells; host or cells: CHO-K1
T2 sequence (P08173 1-479): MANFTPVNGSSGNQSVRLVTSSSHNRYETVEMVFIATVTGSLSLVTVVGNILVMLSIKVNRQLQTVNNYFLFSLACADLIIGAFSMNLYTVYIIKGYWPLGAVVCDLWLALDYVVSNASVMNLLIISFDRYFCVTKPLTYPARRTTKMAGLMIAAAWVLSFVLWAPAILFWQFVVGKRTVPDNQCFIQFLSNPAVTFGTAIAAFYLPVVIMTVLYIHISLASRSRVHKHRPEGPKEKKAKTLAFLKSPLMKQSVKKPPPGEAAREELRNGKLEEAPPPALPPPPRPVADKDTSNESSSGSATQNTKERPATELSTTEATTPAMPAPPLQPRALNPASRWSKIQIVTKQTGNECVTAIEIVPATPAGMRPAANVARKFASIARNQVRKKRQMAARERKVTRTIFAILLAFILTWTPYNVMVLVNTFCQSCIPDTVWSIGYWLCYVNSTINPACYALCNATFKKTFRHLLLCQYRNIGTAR
Kind of assay: cAMP TR-FRET assay with forskolin, M4-overexpressing CHO-K1 cells. The assay is classed as cell-based. In short, it runs like this:
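CHO-K1 cells overexpressing the receptor were stimulated with forskolin to raise cAMP, so that Gi-mediated agonist decreases could be measured. cAMP was quantified by TR-FRET competition between cellular cAMP and labelled donor for anti-cAMP antibody, giving potency and efficacy.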
(In general: In TR-FRET formats the signal depends on donor and acceptor labels being close together.)

T1 sequence (P20309 whole entry): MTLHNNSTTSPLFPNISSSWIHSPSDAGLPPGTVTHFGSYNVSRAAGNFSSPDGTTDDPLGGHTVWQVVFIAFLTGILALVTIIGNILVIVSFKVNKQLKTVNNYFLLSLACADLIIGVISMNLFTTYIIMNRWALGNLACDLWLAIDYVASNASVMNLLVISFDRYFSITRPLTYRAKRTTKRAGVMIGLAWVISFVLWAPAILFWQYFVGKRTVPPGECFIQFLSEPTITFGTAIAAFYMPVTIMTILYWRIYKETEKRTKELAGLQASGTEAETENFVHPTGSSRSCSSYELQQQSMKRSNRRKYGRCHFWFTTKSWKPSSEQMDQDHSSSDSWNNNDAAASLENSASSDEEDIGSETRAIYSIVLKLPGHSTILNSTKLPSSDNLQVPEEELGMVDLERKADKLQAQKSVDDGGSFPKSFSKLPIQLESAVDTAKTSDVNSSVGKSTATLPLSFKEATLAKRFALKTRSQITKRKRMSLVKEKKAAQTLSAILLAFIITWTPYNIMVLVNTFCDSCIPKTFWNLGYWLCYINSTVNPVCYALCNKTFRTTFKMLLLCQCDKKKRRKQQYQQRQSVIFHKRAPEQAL

Usually EC50 stands for the concentration giving half of the maximal effect. In general, Emax refers to the maximal effect, on the per cent scale that the assay sets. As to `CCOC(=O)N1CC2(CC[C@@H](N3CCN(c4cc(C#N)cnc4-c4cnccn4)CC3)C2)C1` [Compound A272], the EC50 in assay [1] (FLIPR) is greater than 10 µM. The molecule also showed an Emax on M4 mAChR (cAMP assay) of 19 to 49.9%.
Consider `CCOC(=O)N1CC2(CC[C@@H](N3CCN(c4cc(F)cnc4-c4cc(C)[nH]n4)CC3)C2)C1` [Compound A101], for which, in assay [1] (FLIPR calcium), the EC50 is greater than 10 µM. For the same molecule, the Emax on M4 mAChR (cAMP TR-FRET with forskolin) lay in the range of 80 to 100%.
As for `CCOC(=O)N1CC2(CC[C@@H](N3CCN(c4cc(F)cnc4-c4c[nH]nc4C4CC4)CC3)C2)C1` [Compound A170], the EC50 in assay [1] (FLIPR) is greater than 10 µM. This molecule returned an Emax on M4 mAChR (cAMP assay) of 80 to 100%.
In the case of `CCOC(=O)N1CC2(CC[C@@H](N3CCN(c4cc(F)cnc4-c4cnc(N(C)C)nc4)CC3)C2)C1` [Compound A73], in assay [1] (FLIPR calcium), the EC50 was greater than 10 µM. The same molecule displayed an Emax at M4 mAChR (cAMP TR-FRET with forskolin) of 80 to 100%.
The matching figures for `CCOC(=O)N1CC2(CC[C@@H](N3CCN(c4cc(F)cnc4-c4cc(F)ccc4O)CC3)C2)C1` [Compound A42]: greater than 10 µM and 80 to 100%.
Turning to `CCOC(=O)N1CC2(CC[C@@H](N3CCN(c4cc(Cl)cnc4-c4nncs4)CC3)C2)C1` [Compound A249], the EC50 in assay [1] (FLIPR) is greater than 10 µM. Besides, at M4 mAChR (cAMP assay), the Emax lay in the range of 80 to 100%.
On the same counts, the results for `CCOC(=O)N1CC2(CCC(N3[C@@H]4CC[C@H]3CN(c3cc(F)cnc3-c3cnccn3)C4)C2)C1` (single isomer, unassigned) [Compound A223] are greater than 10 µM and 80 to 100%.
For the molecule `CCOC(=O)N1CC2(CC[C@@H](N3CCN(c4cc(F)cnc4-c4ccnc(OC)c4)CC3)C2)C1` [Compound A110], the EC50 in assay [1] (FLIPR calcium) is greater than 10 µM. The same molecule registered an Emax on M4 mAChR (cAMP TR-FRET with forskolin) of 80 to 100%.
On the same counts, the results for `CCOC(=O)N1CC2(CC[C@@H](N3CCN(c4cc(F)cnc4-c4cccc5cnn(C)c45)CC3)C2)C1` [Compound A65] are greater than 10 µM and 50 to 79.9%.
The matching figures for `CCOC(=O)N1CC2(CC[C@@H](N3CCN(c4cc(F)cnc4-c4cncc(C(C)(C)O)c4)CC3)C2)C1` [Compound A41]: greater than 10 µM and 80 to 100%.
For the molecule `CCOC(=O)N1CC2(CC[C@@H](N3CCN(c4cc(F)cnc4-c4ccc(O)c(OC)c4)CC3)C2)C1` [Compound A40], in assay [1] (FLIPR calcium), the EC50 was greater than 10 µM. The same molecule showed an Emax at M4 mAChR (cAMP TR-FRET with forskolin) of 80 to 100%.
In the case of `CCOC(=O)N1CC2(CC[C@@H](N3CCN(c4cc(Cl)cnc4-c4cnn(C)c4)CC3)C2)C1` [Compound A204], the half-maximal effective concentration (EC50) in assay [1] (FLIPR) was greater than 10 µM. On M4 mAChR (cAMP assay), the Emax is 80 to 100%.
As to `CCOC(=O)N1CC2(CC[C@@H](N3CCN(c4cc(F)cnc4-c4ccc5c(c4)CN(C)C5=O)CC3)C2)C1` [Compound A192], the EC50 in assay [1] (FLIPR) is greater than 10 µM. The molecule also came in with an Emax at M4 mAChR (cAMP assay) of 80 to 100%.
On the same counts, the results for `CCOC(=O)N1CC2(CC[C@@H](N3CCN(c4cc(F)cnc4-c4cnn5c4OCCC5)CC3)C2)C1` [Compound A173] are greater than 10 µM and 50 to 79.9%.
The matching figures for `CCOC(=O)N1CC2(CC[C@@H](N3CCN(c4cc(Cl)cnc4-c4ccn(C)c(=O)c4)CC3)C2)C1` [Compound A209]: greater than 10 µM and 80 to 100%.
On to `CCOC(=O)N1CC2(CC[C@@H](N3CCN(c4cc(F)cnc4-c4ccc(OC)nc4C)CC3)C2)C1` [Compound A137], for which the EC50 in assay [1] (FLIPR calcium) is greater than 10 µM. On M4 mAChR (cAMP TR-FRET with forskolin), this molecule registered an Emax of 80 to 100%.
On the same counts, the results for `CCOC(=O)N1CC2(CC[C@@H](N3CCN(c4cc(F)cnc4-c4cnc(OCC)nc4)CC3)C2)C1` [Compound A132] are greater than 10 µM and 80 to 100%.
On the same counts, the results for `CCOC(=O)N1CC2(CC[C@@H](N3CCN(c4cc(F)cnc4-c4ccc5nn(C)cc5c4)CC3)C2)C1` [Compound A33] are greater than 10 µM and 80 to 100%.
On the same counts, the results for `CCOC(=O)N1CC2(CC[C@@H](N3CCN(c4cc(F)cnc4-c4cccc(OC)n4)CC3)C2)C1` [Compound A133] are greater than 10 µM and 19 to 49.9%.
Consider `CCOC(=O)N1CC2(CC[C@@H](N3CCN(c4cc(F)cnc4-c4cc(C)c(=O)n(C)c4)CC3)C2)C1` [Compound A202], for which the EC50 in assay [1] (FLIPR) was greater than 10 µM. Also, the maximum response (Emax) at M4 mAChR (cAMP assay) lay in the range of 19 to 49.9%.
Take `CCOC(=O)N1CC2(CC[C@@H](N3CCN(c4cc(F)cnc4-c4cnccn4)CC3)C2)C1` [Compound A6, (R)-ethyl 6-(4-(5-fluoro-2-(pyrazin-2-yl)pyridin-3-yl)piperazin-1-yl)-2-azaspiro[3.4]octane-2-carboxylate]: the EC50 in assay [1] (FLIPR calcium) was greater than 10 µM. In addition, the Emax at M4 mAChR (cAMP TR-FRET with forskolin) fell in the range of 80 to 100%.
With `CCOC(=O)N1CC2(CC[C@@H](N3CCN(c4cc(F)cnc4-c4ccc(OC(F)F)nc4)CC3)C2)C1` [Compound A189], the EC50 in assay [1] (FLIPR) is greater than 10 µM. The Emax at M4 mAChR (cAMP assay) lay within 80 to 100%.
As for `CCOC(=O)N1CC2(CC[C@@H](N3CCN(c4cc(F)cnc4-c4cccc5n[nH]cc45)CC3)C2)C1` [Compound A62], the EC50 in assay [1] (FLIPR calcium) is greater than 10 µM. In addition, the maximal response (Emax) on M4 mAChR (cAMP TR-FRET with forskolin) fell in the range of 80 to 100%.
On the same counts, the results for `CCOC(=O)N1CC2(CC[C@@H](N3CCN(c4cc(F)cnc4-c4ccn(C)n4)CC3)C2)C1` [Compound A120] are greater than 10 µM and 80 to 100%.
The matching figures for `CCOC(=O)N1CC2(CC[C@@H](N3CCN(c4cc(F)cnc4-c4ccn(CC)n4)CC3)C2)C1` [Compound A121]: greater than 10 µM and 80 to 100%.
As for `CCOC(=O)N1CC2(CC[C@@H](N3CCN(c4cc(F)cnc4-c4ccn5nccc5c4)CC3)C2)C1` [Compound A165], the EC50 in assay [1] (FLIPR) is greater than 10 µM. Also, the Emax at M4 mAChR (cAMP assay) lay within 80 to 100%.
With `CCOC(=O)N1CC2(CC[C@@H](N3CCN(c4cc(F)cnc4-c4cncc(OCC)c4)CC3)C2)C1` [Compound A122], the EC50 in assay [1] (FLIPR calcium) was greater than 10 µM. In addition, the Emax on M4 mAChR (cAMP TR-FRET with forskolin) lay in the range of 80 to 100%.
For `[2H]C([2H])([2H])n1cc(-c2ncc(F)cc2N2CCN([C@@H]3CCC4(C3)CN(C(=O)OCC)C4)CC2)cn1` [Compound A187], in assay [1] (FLIPR), the EC50 was greater than 10 µM. The molecule also returned an Emax at M4 mAChR (cAMP assay) of 80 to 100%.
As to `CCOC(=O)N1CC2(CC[C@@H](N3CCN(c4cc(F)cnc4-c4ccc(=O)n(C)c4)CC3)C2)C1` [Compound A123], the EC50 in assay [1] (FLIPR calcium) was greater than 10 µM. On M4 mAChR (cAMP TR-FRET with forskolin), this molecule registered an Emax of 80 to 100%.
For the molecule `CCOC(=O)N1CC2(CC[C@@H](N3CCN(c4cc(F)cnc4-c4ccccn4)CC3)C2)C1` [Compound A227], the 50% effective concentration (EC50) in assay [1] (FLIPR) is greater than 10 µM. Moreover, the Emax at M4 mAChR (cAMP assay) lay in the range of 80 to 100%.
The matching figures for `CCOC(=O)N1CC2(CC[C@@H](N3CCN(c4cc(F)cnc4NC4CC5(COC5)C4)CC3)C2)C1` [Compound A288]: greater than 10 µM and 19 to 49.9%.
Take `CCOC(=O)N1CC2(CC[C@@H](N3CCN(c4cc(F)cnc4-c4ccn(C(F)F)n4)CC3)C2)C1` [Compound A198]: the EC50 in assay [1] (FLIPR) was greater than 10 µM. Also, the Emax on M4 mAChR (cAMP assay) lay in the range of 50 to 79.9%.
As for `CCOC(=O)N1CC2(CC[C@@H](N3CCN(c4cc(F)cnc4-c4cc(F)ncc4F)CC3)C2)C1` [Compound A153], the EC50 in assay [1] (FLIPR) was greater than 10 µM. The same molecule gave an Emax on M4 mAChR (cAMP assay) of 80 to 100%.
Take `CCOC(=O)N1CC2(CC[C@@H](N3CCN(c4cc(F)cnc4-c4cnccc4C)CC3)C2)C1` [Compound A35]: in assay [1] (FLIPR calcium), the EC50 is greater than 10 µM. On M4 mAChR (cAMP TR-FRET with forskolin), this molecule gave an Emax of 80 to 100%.
On the same counts, the results for `CCOC(=O)N1CC2(CC[C@@H](N3CCN(c4cc(F)cnc4-c4ccc(CO)cc4)CC3)C2)C1` [Compound A34] are greater than 10 µM and 80 to 100%.
For the molecule `CCOC(=O)N1CC2(CC[C@@H](N3CCN(c4cc(F)cnc4-c4cnc(OC(F)F)cn4)CC3)C2)C1` [Compound A235], the EC50 in assay [1] (FLIPR) was greater than 10 µM. Besides, the Emax at M4 mAChR (cAMP assay) lay within 80 to 100%.

Source of the values: US20260098026A1, “M4 ACTIVATORS/MODULATORS AND USES THEREOF” (Cerevel Therapeutics, LLC, priority 2022, published 2026).
